Reference: patent US20150284342A1, “BIS(FLUOROALKYL)-1,4-BENZODIAZEPINONE COMPOUNDS” (BRISTOL-MYERS SQUIBB COMPANY, priority 2011, published 2015)
Like-named read-outs stand apart in the source and are kept apart here.

What was measured:
Notch 1 = test: Notch-CBF1 Transactivation Assay (Notch 1); assay type: cell-based
From the text: (§1) Table 12 denotes respective DNA quantity for the transfections.
(§2) Duplicates were used for each sample.

[1] = High Throughput (HT) Metabolic Stability Panel, human liver microsomes; details: 0.5 μM compound, human liver microsomes, 10 min incubation
Method: (§3) Each compound was tested in duplicate.

Notch 3 = test: Notch-CBF1 Transactivation Assay (Notch 3); assay type: cell-based
From the text: as §1, §2

[2] = High Throughput (HT) Metabolic Stability Panel, mouse liver microsomes; details: 0.5 μM compound, mouse liver microsomes, 10 min incubation
Method: as §3

[3] = read-out: Notch 1 (IC50), HeLa cells, luciferase, rounded to 2 digits
[4] = read-out: Notch 3 (IC50), HeLa cells, luciferase, rounded to 2 digits
[5] = HeLa cells, luciferase, rounded to 2 digits, read-out: Notch 1 (IC50)
[6] = HeLa cells, luciferase, rounded to 2 digits, read-out: Notch 3 (IC50)

Structure (SMILES): CN1C(=O)[C@@H](NC(=O)[C@H](CCC(F)(F)F)[C@H](CCC(F)(F)F)C(N)=O)N=C(c2ccccc2)c2cc(F)ccc21 [Example 10, (2R,3S)—N-((3S)-7-fluoro-1-methyl-2-oxo-5-phenyl-2,3-dihydro-1H-1,4-benzodiazepin-3-yl)-2,3-bis(3,3,3-trifluoropropyl)succinamide]
- IC50 (Notch 1; [3]): 2.9 nM
- 0.5 μM HLM (% Remaining) [1]: 96%
- IC50 (Notch 3; [4]): 4.6 nM
- 0.5 μM MsLM (% Remaining) [2]: 98%

Structure (SMILES): CN1C(=O)[C@@H](NC(=O)[C@H](CCC(F)(F)F)[C@H](CCC(F)(F)F)C(N)=O)N=C(c2ccccc2)c2ccc(Cl)cc21 [Example 11, (2R,3S)—N-((3S)-8-chloro-1-methyl-2-oxo-5-phenyl-2,3-dihydro-1H-1,4-benzodiazepin-3-yl)-2,3-bis(3,3,3-trifluoropropyl)succinamide]
- IC50 (Notch 1; [3]): 1.3 nM
- 0.5 μM HLM (% Remaining) [1]: 97%
- IC50 (Notch 3; [4]): 2 nM
- 0.5 μM MsLM (% Remaining) [2]: 98%

Structure (SMILES): COc1cccc2c1NC(=O)[C@@H](NC(=O)[C@H](CCC(F)(F)F)[C@H](CCC(F)(F)F)C(N)=O)N=C2c1ccccc1 [Example 12, (2R,3S)—N-((3S)-9-methoxy-2-oxo-5-phenyl-2,3-dihydro-1H-1,4-benzodiazepin-3-yl)-2,3-bis(3,3,3-trifluoropropyl)succinamide]
- IC50 (Notch 1; [3]): 2.5 nM
- 0.5 μM HLM (% Remaining) [1]: 100%
- IC50 (Notch 3; [4]): 4.2 nM
- 0.5 μM MsLM (% Remaining) [2]: 100%

Structure (SMILES): COc1ccc2c(c1)NC(=O)[C@@H](NC(=O)[C@H](CCC(F)(F)F)[C@H](CCC(F)(F)F)C(N)=O)N=C2c1ccccc1 [Example 13, (2R,3S)—N-((3S)-8-methoxy-2-oxo-5-phenyl-2,3-dihydro-1H-1,4-benzodiazepin-3-yl)-2,3-bis(3,3,3-trifluoropropyl)succinamide]
- IC50 (Notch 1; [5]): 2.1 nM
- 0.5 μM HLM (% Remaining) [1]: 100%
- IC50 (Notch 3; [6]): 3.8 nM
- 0.5 μM MsLM (% Remaining) [2]: 97%

Structure (SMILES): COc1ccc2c(c1)C(c1ccccc1)=N[C@H](NC(=O)[C@H](CCC(F)(F)F)[C@H](CCC(F)(F)F)C(N)=O)C(=O)N2 [Example 14, (2R,3S)—N-((3S)-7-methoxy-2-oxo-5-phenyl-2,3-dihydro-1H-1,4-benzodiazepin-3-yl)-2,3-bis(3,3,3-trifluoropropyl)succinamide]
- IC50 (Notch 1; [5]): 5.2 nM
- 0.5 μM HLM (% Remaining) [1]: 100%
- IC50 (Notch 3; [6]): 13 nM
- 0.5 μM MsLM (% Remaining) [2]: 95%

Structure (SMILES): COc1c(C#N)ccc2c1NC(=O)[C@@H](NC(=O)[C@H](CCC(F)(F)F)[C@H](CCC(F)(F)F)C(N)=O)N=C2c1ccccc1 [Example 15, (2R,3S)—N-((3S)-8-cyano-9-methoxy-2-oxo-5-phenyl-2,3-dihydro-1H-1,4-benzodiazepin-3-yl)-2,3-bis(3,3,3-trifluoropropyl)succinamide]
- IC50 (Notch 1; [3]): 12 nM
- 0.5 μM HLM (% Remaining) [1]: 100%
- IC50 (Notch 3; [4]): 16 nM
- 0.5 μM MsLM (% Remaining) [2]: 93%

Structure (SMILES): NC(=O)[C@@H](CCC(F)(F)F)[C@@H](CCC(F)(F)F)C(=O)N[C@H]1N=C(c2ccccc2)c2ccc(Cl)c(Cl)c2NC1=O [Example 16, (2R,3S)—N-((3S)-8,9-dichloro-2-oxo-5-phenyl-2,3-dihydro-1H-1,4-benzodiazepin-3-yl)-2,3-bis(3,3,3-trifluoropropyl)succinamide]
- IC50 (Notch 1; [3]): 4.2 nM
- 0.5 μM HLM (% Remaining) [1]: 80%
- IC50 (Notch 3; [4]): 6.4 nM
- 0.5 μM MsLM (% Remaining) [2]: 91%

Structure (SMILES): NC(=O)[C@@H](CCC(F)(F)F)[C@@H](CCC(F)(F)F)C(=O)N[C@H]1N=C(c2ccccc2)c2cccc(F)c2NC1=O [Example 17, (2R,3S)—N-((3S)-9-fluoro-2-oxo-5-phenyl-2,3-dihydro-1H-1,4-benzodiazepin-3-yl)-2,3-bis(3,3,3-trifluoropropyl)succinamide]
- IC50 (Notch 1; [3]): 3.6 nM
- 0.5 μM HLM (% Remaining) [1]: 100%
- IC50 (Notch 3; [4]): 7.1 nM
- 0.5 μM MsLM (% Remaining) [2]: 96%

Structure (SMILES): NC(=O)[C@@H](CCC(F)(F)F)[C@@H](CCC(F)(F)F)C(=O)N[C@H]1N=C(c2ccccc2)c2cccc(Cl)c2NC1=O [Example 18, (2R,3S)—N-((3S)-9-chloro-2-oxo-5-phenyl-2,3-dihydro-1H-1,4-benzodiazepin-3-yl)-2,3-bis(3,3,3-trifluoropropyl)succinamide]
- IC50 (Notch 1; [3]): 0.53 nM
- 0.5 μM HLM (% Remaining) [1]: 100%
- IC50 (Notch 3; [4]): 2.3 nM
- 0.5 μM MsLM (% Remaining) [2]: 100%

Structure (SMILES): NC(=O)[C@@H](CCCC(F)(F)F)[C@@H](CCC(F)(F)F)C(=O)N[C@H]1N=C(c2ccccc2)c2ccccc2NC1=O [Example 19, (2R,3S)—N-((3S)-2-Oxo-5-phenyl-2,3-dihydro-1H-1,4-benzodiazepin-3-yl)-3-(4,4,4-trifluorobutyl)-2-(3,3,3-trifluoropropyl)succinamide]
- IC50 (Notch 1; [3]): 1.3 nM
- 0.5 μM HLM (% Remaining) [1]: 96%
- IC50 (Notch 3; [4]): 3.8 nM
- 0.5 μM MsLM (% Remaining) [2]: 97%

Structure (SMILES): COc1ccc2c(c1)NC(=O)[C@@H](NC(=O)[C@H](CCC(F)(F)F)[C@H](CCCC(F)(F)F)C(N)=O)N=C2c1ccccc1 [Example 20, (2R,3S)—N1-((3S)-8-Methoxy-2-oxo-5-phenyl-2,3-dihydro-1H-1,4-benzodiazepin-3-yl)-3-(4,4,4-trifluorobutyl)-2-(3,3,3-trifluoropropyl)succinamide]
- IC50 (Notch 1; [3]): 2.9 nM
- 0.5 μM HLM (% Remaining) [1]: 100%
- IC50 (Notch 3; [4]): 4.2 nM
- 0.5 μM MsLM (% Remaining) [2]: 100%
